The text below walks through data of paper PMC7799360, “Reprogramming immunosuppressive myeloid cells facilitates immunotherapy for colorectal cancer” (EMBO Molecular Medicine, 2020).

One data set deals with 4T1 tumors. The experiment in a line: 4T1 breast cancer model in BALB/c mice. The class given is in vivo, mouse. The settings on record: 4T1, BALB/c mice, 75 mg/kg p.o. daily. The protocol:
(§1) Syngeneic mouse tumor‐bearing models were established as described previously (Tan et al., 2018). Tumor cells (5 × 10^5 ‐ 2 × 10^6) were suspended in 100 μl PBS and implanted subcutaneously into the flank of mice. Mice were randomized into different treatment groups when tumor volumes reached 100‐200 mm^3. V = L×W^2 × 0.52, where L is the longest diameter, and W is the shortest diameter. Tumor size and body weight were recorded every second or third day. Mouse survival was analyzed using the Kaplan–Meier method.
(§2) Single agent or combination treatment was designed as follows: TP‐16 (37.5, 75, 150 mg/kg) or celecoxib (100 mg/kg) was formulated in 0.5% carboxymethylcellulose sodium (CMC‐Na, Sangon Biotech, Shanghai, China) and administered via oral gavage daily. In vivo anti‐PD1 antibody (clone RMP1‐14, BioXCell, West Lebanon, NH, USA) and rat IgG2a isotype control (clone 2A3, BioXCell) were diluted in sterile PBS and administered intraperitoneally at a dose of 50 μg twice weekly.

The target of a further data set is T1, OPRK1 (Homo sapiens, UniProt P41145).
T1 construct: Pharmaron (Beijing, China), contract laboratory
T1 sequence (P41145 whole entry, species assumed): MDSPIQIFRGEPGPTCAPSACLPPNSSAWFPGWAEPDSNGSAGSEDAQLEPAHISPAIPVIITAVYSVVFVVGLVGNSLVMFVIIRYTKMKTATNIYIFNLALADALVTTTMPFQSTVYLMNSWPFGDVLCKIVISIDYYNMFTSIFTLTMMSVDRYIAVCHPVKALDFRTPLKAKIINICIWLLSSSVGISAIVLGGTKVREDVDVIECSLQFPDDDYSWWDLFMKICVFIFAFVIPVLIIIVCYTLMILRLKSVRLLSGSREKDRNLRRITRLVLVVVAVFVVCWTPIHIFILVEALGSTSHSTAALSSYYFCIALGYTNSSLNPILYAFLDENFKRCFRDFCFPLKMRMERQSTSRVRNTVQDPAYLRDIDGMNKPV
The experiment in a line: GPCR calcium flux assay. The data set is classed as cell-based.

Another data set deals with T2, CHRM3 (Homo sapiens, UniProt P20309).
T2 construct: Pharmaron (Beijing, China), contract laboratory
T2 sequence (P20309 whole entry, species assumed): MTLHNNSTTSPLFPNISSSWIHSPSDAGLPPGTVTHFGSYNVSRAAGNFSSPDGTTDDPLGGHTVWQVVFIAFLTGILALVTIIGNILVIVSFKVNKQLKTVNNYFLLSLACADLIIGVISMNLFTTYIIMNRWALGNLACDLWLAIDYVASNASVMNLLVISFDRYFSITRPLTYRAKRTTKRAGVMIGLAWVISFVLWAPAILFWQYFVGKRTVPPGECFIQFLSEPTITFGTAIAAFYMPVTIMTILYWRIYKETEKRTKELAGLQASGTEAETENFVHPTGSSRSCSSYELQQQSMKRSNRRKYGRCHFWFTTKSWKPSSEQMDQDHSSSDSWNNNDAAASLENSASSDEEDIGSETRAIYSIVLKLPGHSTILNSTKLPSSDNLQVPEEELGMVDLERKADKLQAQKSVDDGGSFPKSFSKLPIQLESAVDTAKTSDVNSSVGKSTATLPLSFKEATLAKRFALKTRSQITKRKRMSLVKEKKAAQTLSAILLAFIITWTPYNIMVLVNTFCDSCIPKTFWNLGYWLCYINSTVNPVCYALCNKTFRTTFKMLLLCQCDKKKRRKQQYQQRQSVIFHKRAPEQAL
The experiment in a line: GPCR calcium flux assay. The data set is classed as cell-based.

Another data set deals with T3, AT1 (Homo sapiens, UniProt P30556).
T3 construct: Pharmaron (Beijing, China), contract laboratory
T3 sequence (P30556 whole entry): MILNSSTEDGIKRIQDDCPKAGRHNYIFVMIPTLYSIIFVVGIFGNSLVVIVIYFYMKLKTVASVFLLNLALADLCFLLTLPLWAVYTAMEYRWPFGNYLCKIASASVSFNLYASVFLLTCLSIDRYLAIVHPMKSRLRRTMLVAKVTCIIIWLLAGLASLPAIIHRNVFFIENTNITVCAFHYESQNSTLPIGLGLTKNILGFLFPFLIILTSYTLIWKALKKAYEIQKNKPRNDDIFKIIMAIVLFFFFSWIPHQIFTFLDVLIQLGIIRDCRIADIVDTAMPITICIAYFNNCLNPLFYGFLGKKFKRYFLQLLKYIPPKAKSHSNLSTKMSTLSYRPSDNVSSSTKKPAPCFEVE
As to the kind of experiment: GPCR calcium flux assay. The data set is classed as cell-based.

The target in a further data set is T4, human EP1 (Homo sapiens, UniProt P34995).
T4 construct: host or cells: CHO-Gα16
T4 sequence (P34995 whole entry): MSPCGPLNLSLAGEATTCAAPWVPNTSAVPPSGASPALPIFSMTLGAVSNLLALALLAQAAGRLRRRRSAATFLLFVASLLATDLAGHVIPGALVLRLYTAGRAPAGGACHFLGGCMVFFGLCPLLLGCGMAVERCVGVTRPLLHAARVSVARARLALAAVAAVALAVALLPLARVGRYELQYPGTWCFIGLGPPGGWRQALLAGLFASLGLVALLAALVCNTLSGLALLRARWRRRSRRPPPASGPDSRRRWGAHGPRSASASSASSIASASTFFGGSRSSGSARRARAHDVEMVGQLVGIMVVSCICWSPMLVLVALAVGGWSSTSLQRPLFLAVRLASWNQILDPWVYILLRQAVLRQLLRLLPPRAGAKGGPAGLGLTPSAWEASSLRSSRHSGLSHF
The experiment in a line: PGE2-induced calcium flux assay in CHO-Gα16 cells. The class given is cell-based.

The next data set relates to MC38. As to the kind of experiment: Cell viability (MTS). The class given is cell-based, mouse. The note with it: MC38, 100 µM. From the text:
(§3) The murine colon cancer (CT26), murine breast cancer (4T1), and human colon cancer (HCT116, HCT8, HT29, and DLD1) cell lines were obtained from American Type Culture Collection (ATCC). The murine cell lines of melanoma (B16F10), pancreatic cancer (Pan02), and colon cancer (MC38), Chinese hamster ovary (CHO) cell line, and human embryonic kidney cell lines (HEK293 and HEK293T) were purchased from the National Infrastructure of Cell Line Resource (Shanghai, China). Primary human endothelial cells (HUVECs) were kindly provided by Dr. Xinli Wang (Baylor College of Medicine, Houston, TX, USA) and cultured in endothelial cell medium (ScienCell, San Diego, CA, USA) according to the manufacturer’s instructions. The CHO‐Gα16 cell line was established in our previous study and maintained in DMEM/F12 medium containing puromycin (4 μg/ml) (Wu et al., 2018). Cell lines were maintained in vendor recommended growth medium supplemented with 10% FBS (Gibco, Waltham, MA, USA) and 1% penicillin/streptomycin solution (Gibco) at 37°C ins a humidified atmosphere (5% CO2). All cell lines were authenticated using short tandem repeat analysis. All cell lines were confirmed to be mycoplasma‐free by polymerase chain reaction (PCR) analysis. Cell viability was determined using CellTiter 96 ® Aqueous One Solution (Promega, Madison, WI).
(§4) Appendix Figure S1. […]. The cytotoxicity curves
(§5) . Mouse cancer cells: CT26
(§6) . Human colon cancer cells: HCT116 (E),
(§7) HCT8 (F), HT29 (G) and DLD1 (H). Human normal cell line: HUVECs (I). Cell
(§8) viability was measured by MTS. Data are presented as mean ± SEM derived
(§9) from three independent experiments (n=3).
(§10) (1 picture or pasted object on this page, not shown here)

The next data set has as its system Panc02. As to the kind of experiment: Cell viability (MTS). The data set is classed as cell-based, mouse. The note with it: Panc02, 100 µM.
From the text: as §3, §4, §5, §6, §7, §8, §9, §10

A further data set concerns CT26. As to the kind of experiment: Cell viability (MTS). The data set is classed as cell-based, mouse. The note with it: CT26, 100 µM.
From the text: as §3, §4, §5, §6, §7, §8, §9, §10

A further data set concerns 4T1. As to the kind of experiment: Cell viability (MTS). The data set is classed as cell-based, mouse. The note with it: 4T1, 100 µM.
From the text: as §3, §4, §5, §6, §7, §8, §9, §10

A further data set has as its target T5, CHRM1 (Homo sapiens, UniProt P11229).
T5 construct: Pharmaron (Beijing, China), contract laboratory
As to the kind of experiment: GPCR calcium flux assay. The data set is classed as cell-based.

Data set [1] in a line: In vitro metabolic stability using liver microsome. The class given is in vitro ADME. The settings on record: mouse liver microsome.
For another data set, the target named is ADORA2B (Homo sapiens, UniProt P29275). The experiment in a line: LANCE Ultra cAMP assay.
Sequence of ADORA2B (P29275 whole entry, species assumed): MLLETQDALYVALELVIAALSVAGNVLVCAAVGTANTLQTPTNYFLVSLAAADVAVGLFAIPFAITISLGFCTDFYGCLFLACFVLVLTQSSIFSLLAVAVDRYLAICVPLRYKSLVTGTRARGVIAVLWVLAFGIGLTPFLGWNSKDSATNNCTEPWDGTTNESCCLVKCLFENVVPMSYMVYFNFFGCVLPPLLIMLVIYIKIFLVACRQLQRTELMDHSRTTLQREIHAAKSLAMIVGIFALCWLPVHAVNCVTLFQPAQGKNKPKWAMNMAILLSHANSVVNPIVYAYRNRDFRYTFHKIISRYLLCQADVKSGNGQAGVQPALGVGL
The target of the next data set is T6, ADRA2A (Homo sapiens, UniProt P08913).
T6 construct: Pharmaron (Beijing, China) performed the assay
T6 sequence (P08913 whole entry, species assumed): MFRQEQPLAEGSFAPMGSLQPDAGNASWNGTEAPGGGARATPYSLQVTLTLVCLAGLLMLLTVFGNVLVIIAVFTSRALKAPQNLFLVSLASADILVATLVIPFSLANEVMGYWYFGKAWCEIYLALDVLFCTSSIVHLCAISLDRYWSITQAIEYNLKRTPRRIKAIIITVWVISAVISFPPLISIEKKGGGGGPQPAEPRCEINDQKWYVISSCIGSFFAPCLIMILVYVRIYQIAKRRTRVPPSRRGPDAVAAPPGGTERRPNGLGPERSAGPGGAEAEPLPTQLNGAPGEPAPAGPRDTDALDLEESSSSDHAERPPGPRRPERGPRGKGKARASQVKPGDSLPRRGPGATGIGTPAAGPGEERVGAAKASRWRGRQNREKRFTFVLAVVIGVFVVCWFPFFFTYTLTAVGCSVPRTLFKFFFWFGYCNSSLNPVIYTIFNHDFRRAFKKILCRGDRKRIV
As to the kind of experiment: GPCR calcium flux assay. The data set is classed as cell-based.

For a further data set, the target named is DRD2 (Homo sapiens, UniProt P14416). As to the kind of experiment: LANCE Ultra cAMP assay.
Sequence of DRD2 (P14416 whole entry, species assumed): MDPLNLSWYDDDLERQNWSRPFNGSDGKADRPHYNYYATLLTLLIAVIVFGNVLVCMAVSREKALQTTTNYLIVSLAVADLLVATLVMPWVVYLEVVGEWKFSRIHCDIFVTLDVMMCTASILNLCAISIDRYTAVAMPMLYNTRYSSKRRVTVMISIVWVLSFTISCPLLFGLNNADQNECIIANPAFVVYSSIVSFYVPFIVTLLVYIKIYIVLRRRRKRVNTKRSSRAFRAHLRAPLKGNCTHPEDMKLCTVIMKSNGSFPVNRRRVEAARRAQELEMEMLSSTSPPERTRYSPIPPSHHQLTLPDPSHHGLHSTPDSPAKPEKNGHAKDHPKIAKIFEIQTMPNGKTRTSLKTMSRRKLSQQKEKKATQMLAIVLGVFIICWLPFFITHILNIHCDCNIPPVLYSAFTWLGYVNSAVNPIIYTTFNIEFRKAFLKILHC
The target of the next data set is human EP3 (Homo sapiens, UniProt P43115). As to the kind of experiment: PGE2-induced calcium flux assay in CHO-Gα16 cells. The data set is classed as cell-based.
Sequence of human EP3 (P43115 1-359 limits assumed): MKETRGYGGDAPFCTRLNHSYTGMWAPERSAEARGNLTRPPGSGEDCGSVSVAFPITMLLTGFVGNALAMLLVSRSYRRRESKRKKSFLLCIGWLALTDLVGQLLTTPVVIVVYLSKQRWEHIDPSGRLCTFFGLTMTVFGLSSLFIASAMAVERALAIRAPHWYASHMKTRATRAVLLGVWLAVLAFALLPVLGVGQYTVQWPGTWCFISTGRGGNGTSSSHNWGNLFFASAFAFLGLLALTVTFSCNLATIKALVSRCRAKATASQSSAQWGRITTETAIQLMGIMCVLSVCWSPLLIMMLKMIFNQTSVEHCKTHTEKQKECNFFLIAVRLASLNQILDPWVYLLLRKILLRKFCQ
The subject of a further data set is mouse bone marrow cells. As to the kind of experiment: GM-CSF/IL-6-induced bone marrow MDSC differentiation assay. The class given is cell-based. The note with it: GM-CSF/IL-6/PGE2, 0.1-10 μM TP-16, 6 days. Here is the method:
Single‐cell suspensions of mouse BM cells were prepared by filtering femurs and tibias of 6‐week‐old female BALB/c mice through 40‐μm cell strainers (Falcon). These suspensions were treated with red blood cell lysis buffer and replated in conditioned medium. Monocyte differentiation, MDSC induction, and macrophage polarization were analyzed by FACS analysis (BD Biosciences) with FlowJo software.
For the MDSC induction assay, purified BM cells were cultured in RPMI1640 medium stimulated with recombinant mouse GM‐CSF (40 ng/ml, Peprotech) and IL‐6 (40 ng/ml, Peprotech) for 6 days to generate bone marrow‐derived MDSCs (Svoronos et al., 2017); the medium was refreshed every 3 days. Vehicle or PGE2 (10 nM) ± TP‐16 was added simultaneously on day 0 for FACS analysis of BM‐derived MDSCs. For quantitative PCR (qPCR) analysis of MDSCs, differentiated MDSCs were treated with vehicle or PGE2 (10 nM) ± TP‐16 for 12 h.

The target of a further data set is T7, ADORA2A (Homo sapiens, UniProt P29274).
T7 construct: Pharmaron (Beijing, China) performed the assay
T7 sequence (P29274 whole entry, species assumed): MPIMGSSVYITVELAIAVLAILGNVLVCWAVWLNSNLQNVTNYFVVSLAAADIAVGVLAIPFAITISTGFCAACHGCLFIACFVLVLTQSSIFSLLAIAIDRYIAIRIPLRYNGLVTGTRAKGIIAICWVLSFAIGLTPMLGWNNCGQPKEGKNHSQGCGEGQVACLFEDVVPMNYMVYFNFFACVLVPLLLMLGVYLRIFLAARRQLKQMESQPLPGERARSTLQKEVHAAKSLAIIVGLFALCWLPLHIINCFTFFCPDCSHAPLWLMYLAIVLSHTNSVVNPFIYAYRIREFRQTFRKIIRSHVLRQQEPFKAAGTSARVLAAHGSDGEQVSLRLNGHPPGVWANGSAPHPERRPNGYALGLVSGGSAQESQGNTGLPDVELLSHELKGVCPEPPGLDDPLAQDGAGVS
The experiment in a line: LANCE Ultra cAMP assay. The class given is cell-based.

The next data set concerns CT26 tumors. As to the kind of experiment: CT26 tumors in BALB/c nude mice. The settings on record: 75 mg/kg. The data set is classed as in vivo, mouse. The protocol: as §1, §2
The next data set relates to other 25 GPCRs. As to the kind of experiment: GPCR selectivity (LANCE Ultra cAMP assay and calcium flux assay). The settings on record: read-out: IC50 on other 25 GPCRs; LANCE Ultra cAMP and calcium flux assays.
For another data set, the target named is T8, ADRB2 (Homo sapiens, UniProt P07550).
T8 construct: Pharmaron (Beijing, China) performed the assay
T8 sequence (P07550 whole entry, species assumed): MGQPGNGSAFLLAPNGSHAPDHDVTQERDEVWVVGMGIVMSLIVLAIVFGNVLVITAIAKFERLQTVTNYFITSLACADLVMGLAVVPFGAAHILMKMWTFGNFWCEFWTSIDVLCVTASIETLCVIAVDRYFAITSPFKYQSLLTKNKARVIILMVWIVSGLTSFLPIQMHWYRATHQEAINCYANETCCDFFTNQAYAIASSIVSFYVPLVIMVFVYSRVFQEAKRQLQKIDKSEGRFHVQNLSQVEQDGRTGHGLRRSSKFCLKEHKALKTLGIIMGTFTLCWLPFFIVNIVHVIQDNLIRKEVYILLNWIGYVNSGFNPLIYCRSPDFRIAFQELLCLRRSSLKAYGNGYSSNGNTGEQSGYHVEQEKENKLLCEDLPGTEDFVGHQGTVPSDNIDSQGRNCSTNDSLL
As to the kind of experiment: GPCR calcium flux assay. The class given is cell-based.

T5 sequence (P11229 whole entry, species assumed): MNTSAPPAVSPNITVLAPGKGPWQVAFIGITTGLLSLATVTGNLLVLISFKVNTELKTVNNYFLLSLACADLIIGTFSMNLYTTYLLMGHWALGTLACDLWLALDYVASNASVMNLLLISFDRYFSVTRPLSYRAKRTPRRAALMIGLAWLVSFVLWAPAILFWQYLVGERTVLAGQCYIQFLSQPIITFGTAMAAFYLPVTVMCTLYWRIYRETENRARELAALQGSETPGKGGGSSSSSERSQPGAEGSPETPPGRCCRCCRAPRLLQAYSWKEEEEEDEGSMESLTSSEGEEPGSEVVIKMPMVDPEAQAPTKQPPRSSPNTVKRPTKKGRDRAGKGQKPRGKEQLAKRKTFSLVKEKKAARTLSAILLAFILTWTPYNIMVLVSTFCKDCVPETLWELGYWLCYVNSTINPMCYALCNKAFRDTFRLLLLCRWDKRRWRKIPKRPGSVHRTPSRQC

For `C[C@H](NC(=O)c1c(Cc2ccc(F)cc2)sc2c1CCOC2)c1ccc(C(=O)O)cc1` [TP-16], the “%TGI” value with 4T1 tumors stood at 27.3%. Further, the IC50 at OPRK1, on CHRM3, at AT1, on human EP1, at CHRM1 and on ADORA2B was more than 10 µM in each case. The IC50 at ADRA2A, against DRD2, at human EP3, against ADORA2A, with other 25 GPCRs and at ADRB2 was more than 10 µM each time. In addition, the “effect on cell viability” value in the data set on MC38, with Panc02, in the data set on CT26 and in the data set on 4T1 was “did not affect the viability” throughout. This compound yielded a hepatocyte CLint in [1] (liver microsomes) of 5.91 µL/min/1e6 cells. For the same compound, the half-life in data set [1] (liver microsomes, read-out: In vitro T1/2) is 3.92 h. In addition, in [1] (liver microsomes, read-out: Predicted hepatic Clint), the CLhep predicted is 39.3 mL/min/kg. The CLint scaled in data set [1] (liver microsomes, read-out: Scale-up Clint) was 69.8 mL/min/kg. The “Remaining Percentages at 120 min” value in [1] is 70.6%. Also, the “PGE2-dependent expansion of both mMDSCs and PMN-MDSCs” value in the data set with mouse bone marrow cells is listed as “significantly inhibited”. In the data set on CT26 tumors, the “anti-tumor efficacy in BALB/c nude mice” value is “lost”.
